Experimental findings from ChEMBL document CHEMBL3091442, “Synthesis and antitumor activity evaluation of maleopimaric acid N-aryl imide atropisomers” (Bioorg Med Chem Lett, 2013) are described below.

SMILES strings stand for the structures.

In assay [1] the test system is NCI-H460. Put plainly: Cytotoxicity against human NCI-H460 cells after 72 hrs by MTT assay. The conditions noted are these: NCI-H460, 72 h. The class given is functional, cell-based. (In general: Tetrazolium dyes change colour on reduction, which living cells bring about.)
The next assay has as its system MGC-803. Put plainly: Cytotoxicity against human MGC803 cells after 72 hrs by MTT assay. Type of assay: functional, cell-based. The conditions noted are these: MGC-803, 72 h.
The next assay relates to HepG2. As to the kind of experiment: Cytotoxicity against human HepG2 cells after 72 hrs by MTT assay. Type of assay: functional, cell-based. The conditions noted are these: HepG2, 72 h.
Another assay relates to A549. Put plainly: Cytotoxicity against human A549 cells after 72 hrs by MTT assay. The class given is functional, cell-based. The conditions noted are these: A549, 72 h.
The subject of another assay is HCT-116. As to the kind of experiment: Cytotoxicity against human HCT116 cells after 72 hrs by MTT assay. The following applies: HCT-116, 72 h. The class given is functional, cell-based.
Assay [2] has as its system NCI-H460. Put plainly: Induction of apoptosis in human NCI-H460 cells assessed as early apoptotic cells at 45 uM after 24 hrs by Annexin V-FITC/propidium iodide staining-based flow cytometry (reference value: 1.5%). The class given is functional. For orientation: A flow cytometer gives signals particle by particle.
For assay [3], the system named is NCI-H460. As to the kind of experiment: Induction of apoptosis in human NCI-H460 cells assessed as late apoptotic cells at 45 uM after 24 hrs by Annexin V-FITC/propidium iodide staining-based flow cytometry (reference value: 0.8%). Type of assay: functional.
In assay [4] the test system is NCI-H460. Put plainly: Cell cycle arrest in human NCI-H460 cells assessed as accumulation at diploid G1 phase at IC50 after 48 hrs by propidium iodide staining-based FACS analysis (reference value: 68.60%). Type of assay: functional.
Assay [5] relates to NCI-H460. Put plainly: Cell cycle arrest in human NCI-H460 cells assessed as accumulation at diploid S phase at IC50 after 48 hrs by propidium iodide staining-based FACS analysis (reference value: 23.27%). Type of assay: functional.
The test system of assay [6] is NCI-H460. As to the kind of experiment: Cell cycle arrest in human NCI-H460 cells assessed as accumulation at diploid G2 phase at IC50 after 48 hrs by propidium iodide staining-based FACS analysis (reference value: 8.14%). The class given is functional.

A word on the IC50: it is the point on the concentration scale where inhibition reaches its midpoint. A low value points to higher potency. Turning to `CC(C)C1=C[C@]23CC[C@@H]4[C@](C)(CCC[C@@]4(C)C(=O)O)[C@H]2C[C@H]1[C@H]1C(=O)OC(=O)[C@H]13`, the IC50 is more than 100 µM in the assay on NCI-H460 [1]; 61.8 µM with MGC-803; more than 100 µM in the assay on HepG2; 81.2 µM in the assay with A549; 98.7 µM in the assay with HCT-116.

For `O=c1[nH]cc(F)c(=O)[nH]1` [FLUOROURACIL], the Activity in the assay with NCI-H460 [2] is 16.8%; in the assay with NCI-H460 [3], 6.5%; in the assay on NCI-H460 [4], 71.93%; in the assay on NCI-H460 [5], 28.07%; in the assay with NCI-H460 [6] it was 0%. Further, the IC50 with NCI-H460 [1] worked out at 23.3 µM; in the assay on MGC-803, 15.3 µM; in the assay on HepG2 it was 19.4 µM; in the assay with A549, 20.1 µM; in the assay with HCT-116, 8.32 µM.
